The target in assay [1] is Beta-2 adrenergic receptor (Cavia porcellus, UniProt Q8K4Z4). Nature of the assay: Antagonist activity at beta2 adrenoceptor in guinea pig trachea assessed as inhibition of isoproterenol-induced response after 20 mins. The settings on record: read-out: pA2 (converted).
For assay [2], the target named is Beta-1 adrenergic receptor (Cavia porcellus, UniProt B0FL73). Nature of the assay: Antagonist activity at beta1 adrenoceptor in guinea pig atrium assessed as inhibition of isoproterenol-induced response after 20 mins. The arrangement: species or system Cardiac atrium. The settings on record: read-out: pA2 (converted).
Chain of Beta-1 adrenergic receptor (B0FL73 whole entry): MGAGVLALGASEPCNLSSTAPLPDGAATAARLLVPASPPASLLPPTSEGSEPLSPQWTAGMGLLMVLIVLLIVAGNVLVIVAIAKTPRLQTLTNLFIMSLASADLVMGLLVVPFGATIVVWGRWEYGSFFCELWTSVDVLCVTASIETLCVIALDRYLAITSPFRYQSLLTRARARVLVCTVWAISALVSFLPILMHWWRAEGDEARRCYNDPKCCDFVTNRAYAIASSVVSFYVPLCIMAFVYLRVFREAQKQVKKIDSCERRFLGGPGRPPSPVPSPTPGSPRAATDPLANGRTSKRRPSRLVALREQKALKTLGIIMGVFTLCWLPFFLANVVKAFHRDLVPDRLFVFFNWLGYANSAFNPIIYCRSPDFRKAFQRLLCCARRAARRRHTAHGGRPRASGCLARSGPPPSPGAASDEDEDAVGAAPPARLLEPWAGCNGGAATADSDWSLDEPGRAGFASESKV
In assay [3] the target is Beta-1 adrenergic receptor (Cavia porcellus) (UniProt B0FL73). Nature of the assay: Intrinsic activity at beta1 adrenoceptor in guinea pig atrium relative to isoproterenol. The settings on record: Cardiac atrium.
Chain of Beta-1 adrenergic receptor (Cavia porcellus) (B0FL73 1-467): as the sequence (B0FL73 whole entry) above
Assay [4] addresses Beta-2 adrenergic receptor (Cavia porcellus) (UniProt Q8K4Z4). As to the kind of experiment: Partial agonist at beta2 adrenoceptor in guinea pig trachea.
The target of assay [5] is Beta-1 adrenergic receptor (Cavia porcellus) (UniProt B0FL73). As to the kind of experiment: Partial agonist activity at beta1 adrenoceptor in guinea pig atrium. The settings on record: Cardiac atrium.
In assay [6] the target is Beta-2 adrenergic receptor (Cavia porcellus) (UniProt Q8K4Z4). As to the kind of experiment: Intrinsic activity at beta2 adrenoceptor in guinea pig atrium relative to isoproterenol. The settings on record: Cardiac atrium.
Chain of Beta-2 adrenergic receptor (Cavia porcellus) (Q8K4Z4 whole entry, looked up): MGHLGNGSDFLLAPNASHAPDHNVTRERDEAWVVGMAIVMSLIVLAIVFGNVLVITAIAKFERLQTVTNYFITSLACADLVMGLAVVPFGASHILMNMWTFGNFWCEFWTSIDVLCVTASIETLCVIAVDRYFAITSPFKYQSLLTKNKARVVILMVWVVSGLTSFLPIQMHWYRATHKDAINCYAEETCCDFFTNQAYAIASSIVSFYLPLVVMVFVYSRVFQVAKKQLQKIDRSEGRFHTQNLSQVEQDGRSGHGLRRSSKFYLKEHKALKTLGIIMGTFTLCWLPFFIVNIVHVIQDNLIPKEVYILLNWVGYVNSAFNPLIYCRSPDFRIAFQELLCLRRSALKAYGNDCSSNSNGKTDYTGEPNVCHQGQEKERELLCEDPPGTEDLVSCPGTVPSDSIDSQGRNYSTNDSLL
Assay [7] deals with Beta-1 adrenergic receptor (Cavia porcellus) (UniProt B0FL73). As to the kind of experiment: Competitive inhibition of beta1 adrenoceptor in guinea pig atrium assessed as inhibition of isoproterenol-induced response after 20 mins by Schild plot analysis. The settings on record: Cardiac atrium.
The species named for the next assay is Cavia porcellus. Nature of the assay: Selectivity ratio for beta1 adrenoceptor in guinea pig atrium over beta2 adrenoceptor in guinea pig trachea. Format: tissue-based. The settings on record: Cardiac atrium.

Active and inactive are the calls of the source. The calls are words filed in the database; no cut-off is given here.

Chain of Beta-2 adrenergic receptor (Q8K4Z4 whole entry): as the sequence (Q8K4Z4 whole entry, looked up) above

Take `Cc1ccc(C(O)CNC(C)C)cc1` (stereo not given): the results for the Kb in assay [1] and in assay [2] were 0.316 µM and 0.126 µM, respectively.

`COc1ccccc1C(O)CNC(C)C` (stereo not given): the Intrinsic activity in assay [3] and in assay [6] was 0.5 throughout. In addition, the pD2 was 6.8 in assay [4] and 6.3 in assay [5]. In addition, the Kb in assay [1] is 0.12 µM; in assay [2], 0.617 µM.

In the case of `Cc1cccc(C(O)CNC(C)C)c1` (stereo not given), the Kb in assay [1] was 2 µM; in assay [2] it was 0.794 µM.

Regarding `COc1cc(C)ccc1C(O)CNC(C)C` (stereo not given), the Intrinsic activity in assay [3] and in assay [6] was 0.2 in each case. For the same compound, in assay [7], the inhibition result is “Active”. In addition, in the assay filed under Cavia porcellus, the Selectivity ratio was 40. The Kb in assay [1] is 0.398 µM; in assay [2], 0.01 µM.

As for `CC(C)NCC(O)c1ccc(Br)cc1` (stereo not given), the Kb was 0.2 µM in assay [1] and 0.158 µM in assay [2].

In the case of `COc1cc(Br)ccc1C(O)CNC(C)C` (stereo not given), the Intrinsic activity in assay [3] and in assay [6] was 0.2 each time. In assay [7], the inhibition entry was “Active”. Also, the Selectivity ratio in the assay listed under Cavia porcellus amounted to 2. Also, the Kb is 0.0135 µM in assay [1] and 0.00575 µM in assay [2].

Consider `COc1ccc(C)cc1C(O)CNC(C)C` (stereo not given), for which the Kb in assay [1] and in assay [2] was 2.51 µM in each case.

As to `CC(C)NCC(O)c1cccc(Br)c1` (stereo not given), the Kb in assay [1] is 1.26 µM; in assay [2] it was 0.631 µM.

As for `COc1ccc(Br)cc1C(O)CNC(C)C` (stereo not given), the figures for the Kb in assay [1] and in assay [2] were 0.933 µM and 1.48 µM, respectively.

The record behind these values is ChEMBL document CHEMBL3244030, “2-Methoxyphenylethanolamines, potential beta-adrenergic blocking agents” (J Med Chem, 1978).
